Results taken from patent US9212153B2, “Inhibitors of beta-secretase” (Vitae Pharmaceuticals, Inc., priority 2009, dated 2015).
Like-named read-outs stand apart in the source and are kept apart here.

What was measured:
[1] = molecular target: truncated human beta-secretase (residues 1-458, His6-tagged at the C-terminus) (Homo sapiens (Human), UniProt P56817); assay: BACE enzyme assay (fluorescence quench, Example 434A); assay type: biochemical
BACE = BACE (Homo sapiens (Human), UniProt P56817); assay: BACE cell assay (H4-APPsw cells, secreted Aβ 1-40 by AlphaLISA/ELISA); assay type: cell-based; settings: in vitro cell activity
Sequence of BACE (P56817 46-501 limits assumed): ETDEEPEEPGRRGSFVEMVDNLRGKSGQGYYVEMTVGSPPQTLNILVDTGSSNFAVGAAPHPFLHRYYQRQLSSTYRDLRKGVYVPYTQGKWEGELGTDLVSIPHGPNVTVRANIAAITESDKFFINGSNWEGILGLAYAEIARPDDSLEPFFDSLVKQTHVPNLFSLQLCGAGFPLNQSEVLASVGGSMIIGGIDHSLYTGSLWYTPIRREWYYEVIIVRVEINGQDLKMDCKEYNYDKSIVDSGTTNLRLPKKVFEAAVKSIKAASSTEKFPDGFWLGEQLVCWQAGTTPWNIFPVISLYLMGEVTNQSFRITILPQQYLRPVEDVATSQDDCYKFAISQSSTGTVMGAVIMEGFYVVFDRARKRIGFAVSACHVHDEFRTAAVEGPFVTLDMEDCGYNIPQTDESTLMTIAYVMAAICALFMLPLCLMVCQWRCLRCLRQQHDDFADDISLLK

[2] = footnote a: determined according to protocols described in Example 434A

Sequence of truncated human beta-secretase (residues 1-458, His6-tagged at the C-terminus) (P56817 22-458): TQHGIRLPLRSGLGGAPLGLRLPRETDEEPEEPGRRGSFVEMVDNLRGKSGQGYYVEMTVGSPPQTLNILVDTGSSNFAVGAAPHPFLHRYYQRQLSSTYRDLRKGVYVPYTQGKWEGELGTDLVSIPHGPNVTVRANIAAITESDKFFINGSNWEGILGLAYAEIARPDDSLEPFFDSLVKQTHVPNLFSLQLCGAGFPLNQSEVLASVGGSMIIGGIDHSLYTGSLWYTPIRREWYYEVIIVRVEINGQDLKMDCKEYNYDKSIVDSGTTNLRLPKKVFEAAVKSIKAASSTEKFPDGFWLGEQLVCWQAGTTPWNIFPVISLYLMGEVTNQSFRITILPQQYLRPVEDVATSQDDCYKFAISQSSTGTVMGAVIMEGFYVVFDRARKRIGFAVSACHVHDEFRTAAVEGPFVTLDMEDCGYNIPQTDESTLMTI

Row | Compound | IC50 [1, 2] [nM] | IC50 (BACE) [nM] | further results
1 | COC1CCC2(CC1)Cc1ccc(-c3cccnn3)cc1C21N=C(N)N(C)O1 (stereo not drawn) [Compound 107] | – | – | IC50 [1]: 228 nM
2 | CN1OC2(N=C1N)c1cc(Br)ccc1C[C@@]21C[C@@H]1c1ccccc1 (stereo partly drawn) [Compound 460] | – | – | IC50 [1]: 9810 nM
3 | Cc1onc2c1CC1(CC2)Cc2ccc(Br)cc2C12N=C(N)N(C)C2=O (stereo not drawn) [Compound 461] | 16.7 | – | –
4 | CN1OC2(N=C1N)c1cc(-c3cccc(C#N)c3)ccc1CC21CCS(=O)(=O)CC1 (stereo not drawn) [Compound 459] | 693 | – | –
5 | COC1CCC2(CC1)Cc1ccc(C3=CC(O)CC3)cc1C21N=C(N)N(C)C1=O (stereo not drawn) [Compound 476] | – | – | IC50 (nM) [1, 2]: 33. l^a

Second part, led by results:

Row | IC50 [1, 2] [nM] | IC50 (BACE) [nM] | Compound | further results
6 | 870 | – | CN1C(=O)C2(N=C1N)c1cc(-c3cccc(C#N)c3)ccc1CC21Cc2cnncc2C1 (stereo not drawn) [Compound 471] | –
7 | 293 | < 10000 | CN1OC2(C=C1N)c1cc(-c3cccc(C#N)c3)ccc1CC21CCCc2ccccc2C1 (stereo not drawn) [Compound 46] | –
8 | – | < 1000 | CCOC1(F)CCC2(CC1)Cc1ccc(-c3cccc(C#N)c3)cc1C21N=C(N)N(C)O1 (stereo not drawn) [compound 49] | –
9 | 4.5 | < 100 | COC1CCC2(CC1)Cc1ccc(C#CC3CC3)cc1C21C=C(N)N(C)O1 (stereo not drawn) [Compound 3] | –
10 | 138 | – | CN1OC2(N=C1N)c1cc(Br)ccc1CC21CCc2ccccc2CC1 (stereo not drawn) [Compound 67] | –
